Values belong to the compound of their own block, whether it stands above or below them.
What was measured:
3D intestinal tissue [1] = conditions: 3D intestine, apical to basal direction
in vitro = conditions: human
BCRP = target: T1, BCRP (Homo sapiens, UniProt Q9UNQ0); assay: in vitro; conditions: Efflux ratio (B to A)/(A to B), 3D intestinal tissue, dual inhibition with Ko143 and zosuquidar
T1 sequence (Q9UNQ0 1-655): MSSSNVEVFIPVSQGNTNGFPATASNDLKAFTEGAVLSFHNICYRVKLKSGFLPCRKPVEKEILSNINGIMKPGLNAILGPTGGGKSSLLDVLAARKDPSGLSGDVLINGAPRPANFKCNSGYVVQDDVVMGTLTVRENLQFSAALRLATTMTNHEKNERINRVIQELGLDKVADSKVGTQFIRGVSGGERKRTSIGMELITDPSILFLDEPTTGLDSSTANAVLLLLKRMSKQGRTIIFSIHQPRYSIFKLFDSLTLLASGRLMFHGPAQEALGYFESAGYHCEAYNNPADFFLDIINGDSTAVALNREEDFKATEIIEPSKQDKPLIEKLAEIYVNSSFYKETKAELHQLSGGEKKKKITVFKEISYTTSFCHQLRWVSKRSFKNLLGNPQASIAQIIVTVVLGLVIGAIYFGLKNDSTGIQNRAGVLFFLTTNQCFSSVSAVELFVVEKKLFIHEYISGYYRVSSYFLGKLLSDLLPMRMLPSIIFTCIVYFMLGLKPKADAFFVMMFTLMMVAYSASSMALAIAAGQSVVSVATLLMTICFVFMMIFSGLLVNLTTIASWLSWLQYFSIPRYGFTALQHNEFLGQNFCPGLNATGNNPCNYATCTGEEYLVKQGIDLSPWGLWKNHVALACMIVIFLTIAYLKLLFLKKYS

[2] = test system: prostaglandin E2 secretion; assay: Prostaglandin E2 secretion, 3D intestinal tissue; type: cell-based, human; conditions: all doses, 24-hr treatment
3D Caco-2 tissues = conditions: 3D Caco-2 model
2D Caco-2 monolayers = conditions: 2D Caco-2 model
P-gp [3] = target: T2, P-gp (Homo sapiens, UniProt P08183); assay: in vitro; conditions: Efflux ratio (B to A)/(A to B)
T2 sequence (P08183 whole entry): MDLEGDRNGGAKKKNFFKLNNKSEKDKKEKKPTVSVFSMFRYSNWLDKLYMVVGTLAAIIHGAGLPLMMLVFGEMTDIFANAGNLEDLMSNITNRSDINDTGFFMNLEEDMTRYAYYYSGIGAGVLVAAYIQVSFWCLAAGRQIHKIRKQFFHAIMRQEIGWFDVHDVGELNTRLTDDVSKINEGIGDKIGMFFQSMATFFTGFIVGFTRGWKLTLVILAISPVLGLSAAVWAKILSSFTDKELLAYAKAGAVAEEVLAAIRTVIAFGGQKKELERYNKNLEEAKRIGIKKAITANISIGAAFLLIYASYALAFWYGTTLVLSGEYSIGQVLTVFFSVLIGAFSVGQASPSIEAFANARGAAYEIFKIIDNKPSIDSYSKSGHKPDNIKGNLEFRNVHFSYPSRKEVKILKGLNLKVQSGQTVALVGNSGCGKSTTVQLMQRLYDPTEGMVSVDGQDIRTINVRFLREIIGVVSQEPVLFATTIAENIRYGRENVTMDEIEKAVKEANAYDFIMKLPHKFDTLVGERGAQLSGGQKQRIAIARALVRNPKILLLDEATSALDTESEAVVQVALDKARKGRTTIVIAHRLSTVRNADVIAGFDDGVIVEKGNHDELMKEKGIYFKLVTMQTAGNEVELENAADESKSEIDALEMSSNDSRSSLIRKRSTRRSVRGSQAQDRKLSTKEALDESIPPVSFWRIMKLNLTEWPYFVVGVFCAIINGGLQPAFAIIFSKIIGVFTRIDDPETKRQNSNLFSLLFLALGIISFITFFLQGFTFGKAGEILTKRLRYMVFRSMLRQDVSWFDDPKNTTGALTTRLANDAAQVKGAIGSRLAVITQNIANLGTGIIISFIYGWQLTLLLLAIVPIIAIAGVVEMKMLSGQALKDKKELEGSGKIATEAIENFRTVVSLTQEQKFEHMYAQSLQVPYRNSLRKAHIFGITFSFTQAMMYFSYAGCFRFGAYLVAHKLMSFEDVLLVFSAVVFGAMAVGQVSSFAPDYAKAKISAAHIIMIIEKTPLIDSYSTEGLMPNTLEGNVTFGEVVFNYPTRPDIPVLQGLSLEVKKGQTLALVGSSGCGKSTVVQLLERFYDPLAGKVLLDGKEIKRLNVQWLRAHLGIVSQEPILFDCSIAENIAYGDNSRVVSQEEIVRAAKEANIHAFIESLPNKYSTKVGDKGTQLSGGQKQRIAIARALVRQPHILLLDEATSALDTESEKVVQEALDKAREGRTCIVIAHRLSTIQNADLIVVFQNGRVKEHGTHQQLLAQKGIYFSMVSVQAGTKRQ

CYP2C9 = CYP2C9 (Homo sapiens, UniProt P11712)
Sequence of CYP2C9 (P11712 whole entry): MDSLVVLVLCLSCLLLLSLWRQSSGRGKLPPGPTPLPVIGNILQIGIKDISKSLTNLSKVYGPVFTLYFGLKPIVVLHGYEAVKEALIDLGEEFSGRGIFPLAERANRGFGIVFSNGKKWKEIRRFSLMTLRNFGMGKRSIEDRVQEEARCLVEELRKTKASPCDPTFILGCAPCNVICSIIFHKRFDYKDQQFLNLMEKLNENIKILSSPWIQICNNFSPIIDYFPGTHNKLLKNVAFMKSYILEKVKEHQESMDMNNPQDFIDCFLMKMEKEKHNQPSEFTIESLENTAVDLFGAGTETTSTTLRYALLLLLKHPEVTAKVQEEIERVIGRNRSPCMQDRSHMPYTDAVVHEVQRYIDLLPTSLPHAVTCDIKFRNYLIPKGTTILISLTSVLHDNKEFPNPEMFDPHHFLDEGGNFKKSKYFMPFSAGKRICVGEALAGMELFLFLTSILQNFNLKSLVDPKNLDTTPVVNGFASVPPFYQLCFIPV

P-gp [4] = target: T2, P-gp; conditions: 3D intestinal tissue
3D intestinal tissue [5] = assay: LDH release after toxicant treatment, 3D intestinal tissue; type: cell-based, human; conditions: TNF-α for 24 hr
3D intestinal tissue [6] = type: cell-based, human; conditions: 24-hr treatment
[7] = test system: TNF-α/nuclear factor (NF)-κB pathway; assay: Gene expression of TNF-α/NF-κB pathway targets, 3D intestinal tissue; type: cell-based, human; conditions: TNF-α for 24 hr

Compound: CC(=O)N1CCN(c2ccc(OCC3COC(Cn4ccnc4)(c4ccc(Cl)cc4Cl)O3)cc2)CC1 (centres unmarked) [ketoconazole]
- Effect on CYP3A4 activity (midazolam metabolite formation) (CYP3A4): specific inhibition

Compound: CC[C@@]1(O)C(=O)OCc2c1cc1n(c2=O)Cc2cc3c(CN(C)C)c(O)ccc3nc2-1 [topotecan]
- Permeability class (3D intestinal tissue [1]): moderate
- Papp (in vitro): 31 ± 6.3 nm/s
- efflux ratio (BCRP): 1.4

Compound: COc1ccc2c(c1)c(CC(=O)O)c(C)n2C(=O)c1ccc(Cl)cc1 [indomethacin]
- Prostaglandin E2 secretion [2]: inhibition of prostaglandin E2 secretion

Compound: O=C1c2c(O)ccc(O)c2C(=O)c2c(NCCNCCO)ccc(NCCNCCO)c21 [mitoxantrone]
- Papp (in vitro): 2 ± 0.3 nm/s

Compound: tumor necrosis factor alpha [TNF-α]
- LDH release (3D intestinal tissue [5]): significant increase
- Epithelial morphology (histology) (3D intestinal tissue [6]): altered the epithelial morphology
- Gene expression of IL-6, IL-8, CCL2, CXCL10, ICAM1, and TNF-α [7]: upregulated

Continued, values first:

- Permeability class (3D intestinal tissue [1]): high
- Papp (in vitro): 148 ± 19.6 nm/s
Compound: CC(C)NCC(O)COc1cccc2ccccc12 (centres unmarked) [propranolol]

- Papp (3D intestinal tissue [1]): 4.5 ± 15 nm/s
- Papp (3D Caco-2 tissues): 10.5 ± 1 nm/s
- Papp (2D Caco-2 monolayers): 4.6 ± 2.5 nm/s
- Permeability (Papp) (IMF tissue alone): 1630 ± 290 nm/s
Compound: lucifer yellow

- Permeability class (3D intestinal tissue [1]): moderate
- efflux ratio (P-gp [3]): > 2
- Papp (in vitro): 85.3 ± 20.2 nm/s
Compound: C[C@H]1O[C@@H](O[C@H]2[C@@H](O)C[C@H](O[C@H]3[C@@H](O)C[C@H](O[C@H]4CC[C@@]5(C)[C@H](CC[C@@H]6[C@@H]5C[C@@H](O)[C@]5(C)[C@@H](C7=CC(=O)OC7)CC[C@]65O)C4)O[C@@H]3C)O[C@@H]2C)C[C@H](O)[C@@H]1O [digoxin]

- Effect on CYP2C9 activity (luminogenic P450 substrate conversion) (CYP2C9): significantly inhibited
Compound: Nc1ccc(S(=O)(=O)Nc2ccnn2-c2ccccc2)cc1 [sulfaphenazole]

- Effect on B to A transport of digoxin (P-gp [4]): decreased the rate of B to A transport
Compound: O[C@@H](COc1cccc2ncccc12)CN1CCN([C@@H]2c3ccccc3[C@@H]3[C@H](c4ccccc42)C3(F)F)CC1 [zosuquidar]
